Assay results as given in patent publication US20200095236A1, “ANTIBACTERIAL COMPOUNDS” (FORGE THERAPEUTICS, INC., priority 2017, published 2020).
Values after ≈ are worked out from the molar mass of the structure shown. Read-outs that look alike come from different tables or passages of the source.

Assays:
Type in all cases: cell-based
E. coli = test: Bacterial susceptibility testing, MIC by broth microdilution (CLSI); settings: for MIC: Escherichia coli, read-out: E. coli MIC
Experimental: (§1) Minimal inhibitory concentrations (MIC) were determined by the broth microdilution method in accordance with the Clinical and Laboratory Standards Institute (CLSI) guidelines. In brief, organism suspensions were adjusted to a 0.5 McFarland standard to yield a final inoculum between 3×10^5 and 7×10^5 colony-forming units (CFU)/mL. Drug dilutions and inocula were made in sterile, cation adjusted Mueller-Hinton Broth (Beckton Dickinson). An inoculum volume of 100 μL was added to wells containing 100 μL of broth with 2-fold serial dilutions of drug. All inoculated microdilution trays were incubated in ambient air at 35° C. for 18-24 h. Following incubation, the lowest concentration of the drug that prevented visible growth (OD600 nm<0.05) was recorded as the MIC. Performance of the assay was monitored by the use of laboratory quality-control strains and levofloxacin, a compound with a defined MIC spectrum, in accordance with CLSI guidelines.

K. pneumoniae = test: as above; settings: for MIC: Klebsiella pneumoniae, read-out: K. pneumoniae MIC
Experimental: as §1

S. aureus = test: as above; settings: for MIC: Staphylococcus aureus, read-out: S. aureus MIC
Experimental: as §1

[1] = system: TLR-4 activity of A. baumannii culture supernatants; test: TLR4 assay: TLR4 activity of A. baumannii culture supernatants in HEK-Blue-hTLR4 cells; settings: Acinetobacter baumannii, HEK-Blue hTLR4, read-out: % TLR-4 activity
Experimental: The TLR4 assay measures activity of diluted filter-sterilized A. baumannii culture supernatants. The assay was performed as described in Lin et al, Mbio, 2012. Briefly, A. baumannii was passaged to mid log-phase in the presence of Forge LpxC inhibitors. Culture supernatants were harvested, filter-sterilized and diluted 1:1000. TLR4 activity of the supernatants was tested using HEK-Blue-hTLR4 cells (Invivogen) that carry NF-kB and AP-1 driven SEAP (secreted embryonic alkaline phosphatase) reporter gene.
Exemplary TLR4 assay data (% TLR-4 activity) for compounds in embodiments of the disclosure.

[2] = broth microdilution, 35° C., 18-24 h

Row | SMILES | MIC (E. coli; [2]) [µg/mL] | MIC (K. pneumoniae; [2]) [µg/mL] | MIC (S. aureus; [2]) [µg/mL] | other results
1 | O=C(Nc1cnoc1)C(Cc1ccc(C#Cc2ccc(CN3CCOCC3)cc2)cc1)c1nc[nH]c(=O)c1O (centres unmarked) [Compound 4, 2-(5-hydroxy-6-oxo-1,6-dihydropyrimidin-4-yl)-N-(isoxazol-4-yl)-3-(4-((4-(morpholinomethyl)phenyl)ethynyl)phenyl) propanamide] | 1 to 8 (≈ 1.9 to 15.2 µM) | > 32 | > 32 | 
2 | CNC(=O)C(Cc1ccc(C#Cc2ccc(CN3CCOCC3)cc2)cc1)c1nc[nH]c(=O)c1O (centres unmarked) [Compound 5, 2-(5-hydroxy-6-oxo-1,6-dihydropyrimidin-4-yl)-N-methyl-3-(4-((4-(morpholinomethyl)phenyl)ethynyl)phenyl) propanamide] | 1 to 8 (≈ 2.12 to 16.9 µM) | > 32 | > 32 | 
3 | C=CCNC(=O)C(Cc1ccc(C#Cc2ccc(CN3CCOCC3)cc2)cc1)c1nc[nH]c(=O)c1O (centres unmarked) [Compound 6, N-allyl-2-(5-hydroxy-6-oxo-1,6-dihydropyrimidin-4-yl)-3-(4-((4-(morpholinomethyl)phenyl)ethynyl)phenyl)propanamide] | 8 to 32 (≈ 16 to 64.2 µM) | > 32 | > 32 | 
4 | O=C(NCCO)C(Cc1ccc(C#Cc2ccc(CN3CCOCC3)cc2)cc1)c1nc[nH]c(=O)c1O (centres unmarked) [Compound 7, 2-(5-hydroxy-6-oxo-1,6-dihydropyrimidin-4-yl)-N-(2-hydroxyethyl)-3-(4-((4-(morpholinomethyl)phenyl)ethynyl)phenyl) propanamide] | 8 to 32 (≈ 15.9 to 63.7 µM) | > 32 | > 32 | 
5 | O=C(Nc1ccn[nH]1)C(Cc1ccc(C#Cc2ccc(CN3CCOCC3)cc2)cc1)c1nc[nH]c(=O)c1O (centres unmarked) [Compound 8, 2-(5-hydroxy-6-oxo-1,6-dihydropyrimidin-4-yl)-3-(4-((4-(morpholinomethyl)phenyl)ethynyl)phenyl)-N-(1H-pyrazol-5-yl)propanamide] | > 32 | > 32 | > 32 | 
6 | O=C(Nc1cnc[nH]1)C(Cc1ccc(C#Cc2ccc(CN3CCOCC3)cc2)cc1)c1nc[nH]c(=O)c1O (centres unmarked) [Compound 9, 2-(5-hydroxy-6-oxo-1,6-dihydropyrimidin-4-yl)-N-(1H-imidazol-5-yl)-3-(4-((4-(morpholinomethyl)phenyl)ethynyl)phenyl) propanamide] | > 32 | > 32 | > 32 | 
7 | NCCNC(=O)C(Cc1ccc(C#Cc2ccc(CN3CCOCC3)cc2)cc1)c1nc[nH]c(=O)c1O (centres unmarked) [Compound 10, N-(2-aminoethyl)-2-(5-hydroxy-6-oxo-1,6-dihydropyrimidin-4-yl)-3-(4-((4-(morpholinomethyl)phenyl)ethynyl)phenyl) propanamide] | 1 to 8 (≈ 1.99 to 15.9 µM) | 8 to 32 (≈ 15.9 to 63.8 µM) | > 32 | 
8 | O=C(Nc1nnn[nH]1)C(Cc1ccc(C#Cc2ccc(CN3CCOCC3)cc2)cc1)c1nc[nH]c(=O)c1O (centres unmarked) [Compound 11, 2-(5-hydroxy-6-oxo-1,6-dihydropyrimidin-4-yl)-3-(4-((4-(morpholinomethyl)phenyl)ethynyl)phenyl)-N-(1H-tetrazol-5-yl)propanamide] | > 32 | > 32 | > 32 | 
9 | O=C(CF)NCC(Cc1ccc(C#Cc2ccc(CN3CC4CCC(C3)O4)cc2)cc1)c1nc[nH]c(=O)c1O (centres unmarked) [Compound 13, N-(3-(4-((4-((8-oxa-3-azabicyclo[3.2.1]octan-3-yl)methyl)phenyl)ethynyl)phenyl)-2-(5-hydroxy-6-oxo-1,6-dihydropyrimidin-4-yl)propyl)-2-fluoroacetamide] |  |  |  | MIC (E. coli): 1 to 8 µg/mL (≈ 1.88 to 15.1 µM); MIC (K. pneumoniae): 1 to 8 µg/mL (≈ 1.88 to 15.1 µM); MIC (S. aureus): > 32 µg/mL
10 | O=C(CF)NCC(Cc1ccc(C#Cc2ccc(CCN3CCOCC3)cc2)cc1)c1nc[nH]c(=O)c1O (centres unmarked) [Compound 16, 2-fluoro-N-(2-(5-hydroxy-6-oxo-1,6-dihydropyrimidin-4-yl)-3-(4-((4-(2-morpholinoethyl)phenyl)ethynyl)phenyl)propyl)acetamide] |  |  |  | MIC (E. coli): 1 to 8 µg/mL (≈ 1.93 to 15.4 µM); MIC (K. pneumoniae): 8 to 32 µg/mL (≈ 15.4 to 61.7 µM); MIC (S. aureus): > 32 µg/mL
11 | O=C(CF)NCC(Cc1ccc(C#Cc2ccc(CCN3CCOCC3)cc2)cc1)c1nc[nH]c(=O)c1O (centres unmarked) [Compound 17, 2-fluoro-N-(2-(5-hydroxy-6-oxo-1,6-dihydropyrimidin-4-yl)-3-(4-((4-(2-morpholinoethyl)phenyl)ethynyl)phenyl)propyl) acetamide] |  |  |  | E. coli MIC (E. coli; [2]): B (B: >1 μg/mL to ≤8.0 μg/mL); K. pneumoniae MIC (K. pneumoniae; [2]): C (C: >8.0 μg/mL to ≤32 μg/mL); S. aureus MIC (S. aureus; [2]): D (D: >32 μg/mL)
12 | O=C(NCC(Cc1ccc(C#Cc2ccc(CN3CCOCC3)cc2)cc1)c1nc[nH]c(=O)c1O)C(F)(F)F (centres unmarked) [Compound 18, 2,2,2-trifluoro-N-(2-(5-hydroxy-6-oxo-1,6-dihydropyrimidin-4-yl)-3-(4-((4-(morpholinomethyl)phenyl)ethynyl)phenyl)propyl)acetamide] | 1 to 8 (≈ 1.85 to 14.8 µM) | 1 to 8 (≈ 1.85 to 14.8 µM) | > 32 | 
13 | CC(=O)NCC(Cc1ccc(C#Cc2ccc(CN3CCOCC3)cc2)cc1)c1nc[nH]c(=O)c1O (centres unmarked) [Compound 19, N-(2-(5-hydroxy-6-oxo-1,6-dihydropyrimidin-4-yl)-3-(4-((4-(morpholinomethyl)phenyl)ethynyl)phenyl)propyl)acetamide] | 1 to 8 (≈ 2.06 to 16.4 µM) | 8 to 32 (≈ 16.4 to 65.8 µM) | > 32 | 
14 | C=CC(=O)NCC(Cc1ccc(C#Cc2ccc(CN3CCOCC3)cc2)cc1)c1nc[nH]c(=O)c1O (centres unmarked) [Compound 20, N-(2-(5-hydroxy-6-oxo-1,6-dihydropyrimidin-4-yl)-3-(4-((4-(morpholinomethyl)phenyl)ethynyl)phenyl)propyl)acrylamide] | 1 to 8 (≈ 2.01 to 16 µM) | 8 to 32 (≈ 16 to 64.2 µM) | > 32 | 
15 | COC(=O)NCC(Cc1ccc(C#Cc2ccc(CN3CC4CCC(C3)O4)cc2)cc1)c1nc[nH]c(=O)c1O (centres unmarked) [Compound 21, methyl (3-(4-((4-((8-oxa-3-azabicyclo[3.2.1]octan-3-yl)methyl)phenyl)ethynyl)phenyl)-2-(5-hydroxy-6-oxo-1,6-dihydropyrimidin-4-yl)propyl)carbamate] | 1 to 8 (≈ 1.89 to 15.1 µM) | 8 to 32 (≈ 15.1 to 60.5 µM) | > 32 | 
16 | CC(NC(=O)CF)C(Cc1ccc(C#Cc2ccc(CN3CCOCC3)cc2)cc1)c1nc[nH]c(=O)c1O (centres unmarked) [Compound 42, 2-fluoro-N-(3-(5-hydroxy-6-oxo-1,6-dihydropyrimidin-4-yl)-4-(4-((4-(morpholinomethyl)phenyl)ethynyl)phenyl)butan-2-yl)acetamide] |  |  |  | MIC (E. coli): > 32 µg/mL; MIC (K. pneumoniae): > 32 µg/mL; MIC (S. aureus): > 32 µg/mL
17 | O=c1[nH]cnc(C(CNCCF)Cc2ccc(C#Cc3ccc(CN4CCOCC4)cc3)cc2)c1O (centres unmarked) [Compound 58, 6-(1-((2-fluoroethyl)amino)-3-(4-((4-(morpholinomethyl)phenyl)ethynyl)phenyl)propan-2-yl)-5-hydroxypyrimidin-4(3H)-one] |  |  |  | activity at 4 µg/mL [1]: < 20%; activity at 8 µg/mL [1]: < 20%; activity at 16 µg/mL [1]: < 20%
18 | CCCNCC(Cc1ccc(C#Cc2ccc(CN3CCOCC3)cc2)cc1)c1nc[nH]c(=O)c1O (centres unmarked) [Compound 60, 5-hydroxy-6-(1-(4-((4-(morpholinomethyl)phenyl)ethynyl)phenyl)-3-(propylamino)propan-2-yl)pyrimidin-4(3H)-one] |  |  |  | activity at 4 µg/mL [1]: > 80%; activity at 8 µg/mL [1]: > 80%; activity at 16 µg/mL [1]: > 80%
19 | N#CC1CCN(Cc2ccc(C#Cc3ccc(CC(C(=O)NCC(F)F)c4nc[nH]c(=O)c4O)cc3)cc2)C1 (centres unmarked) [Compound 102, 3-(4-((4-((3-cyanopyrrolidin-1-yl)methyl)phenyl)ethynyl)phenyl)-N-(2,2-difluoroethyl)-2-(5-hydroxy-6-oxo-1,6-dihydropyrimidin-4-yl)propanamide] |  |  |  | activity at 4 µg/mL [1]: 20 to 50%; activity at 8 µg/mL [1]: < 20%; activity at 16 µg/mL [1]: < 20%
20 | O=c1[nH]cnc(C2(Cc3ccc(C#Cc4ccc(CN5CCOCC5)cc4)cc3)CC2)c1O [Compound 246, 5-hydroxy-6-(1-(4-((4-(morpholinomethyl)phenyl)ethynyl)benzyl)cyclopropyl)pyrimidin-4(3H)-one] | > 32 | > 32 |  | 
21 | O=c1[nH]cnc(C2(Cc3ccc(C#Cc4ccc(CN[C@@H]5CCOC5)cc4)cc3)CC2)c1O [Compound 247, (R)-5-hydroxy-6-(1-(4-((4-(((tetrahydrofuran-3-yl)amino)methyl)phenyl)ethynyl)benzyl)cyclopropyl)pyrimidin-4(3H)-one] | 1 to 8 (≈ 2.26 to 18.1 µM) | 8 to 32 (≈ 18.1 to 72.5 µM) |  | 
22 | O=c1[nH]cnc(C(Cc2ccc(C#Cc3ccc(CN4CCOCC4)cc3)cc2)CN2CCOCC2)c1O (centres unmarked) [Compound 249, 5-hydroxy-6-(1-morpholino-3-(4-((4-(morpholinomethyl)phenyl)ethynyl)phenyl)propan-2-yl)pyrimidin-4(3H)-one] | < 1 | > 32 |  | 
23 | O=c1[nH]cnc(C(CNCCc2cccnc2)Cc2ccc(C#Cc3ccc(CN4CCOCC4)cc3)cc2)c1O (centres unmarked) [Compound 251, 5-hydroxy-6-(1-(4-((4-(morpholinomethyl)phenyl)ethynyl)phenyl)-3-((2-(pyridin-3-yl)ethyl)amino)propan-2-yl)pyrimidin-4(3H)-one] | > 32 | > 32 |  | 
